Values quoted from earlier work as cited in patent US20110286960A1, “CANCER THERAPY BY DOCETAXEL AND GRANULOCYTE COLONY-STIMULATING FACTOR (G-CSF)” (OPTIMATA LTD., priority 2008, published 2011).
Like-named read-outs stand apart in the source and are kept apart here. One block for each molecule: values may come before it.

Key:
neutrophils [1] = conditions: for nadir of neutrophil level: human, in vivo
[2] = Baker et al., 2004, mean ± STD
neutrophils [3] = conditions: G-CSF treatment one day post-chemotherapy
[4] = docetaxel clinical trial results (17, 28)

Molecule: CC[C@]12C=CCN3CC[C@@]4(c5cc([C@@]6(C(=O)OC)C[C@@H]7C[C@@H](C(C)(F)F)CN(Cc8c6[nH]c6ccccc86)C7)c(OC)cc5N(C)[C@H]4[C@@](O)(C(=O)OC)[C@@H]1OC(C)=O)[C@@H]32 [vinflunine]
- nadir of neutrophil level (neutrophils [1]): 20 days

B1: G-CSF: Granulocyte Colony-Stimulating Factor, neutropenia alleviating support therapy (protein, UniProt P09919 31-207, looked up)
Granulocyte …: TPLGPASSLPQSFLLKCLEQVRKIQGDGAALQEKLVSECATYKLCHPEELVLLGHSLGIPWAPLSSCPSQALQLAGCLSQLHSGLFLYQGLLQALEGISPELGPTLDTLQLDVADFATTIWQQMEELGMAPALQPTQGAMPAFASAFQRRAGGVLVASHLQSFLEVSYRVLRHLAQP
- grade 4 neutropenia reported (neutrophils [1]; G-CSF post-docetaxel, locally advanced breast cancer (10) or advanced NSCLC patients (11)): No grade 4 neutropenia
- effect on neutropenia (neutrophils [3]): speeds up and aggravates neutropenia

The next lines start with the values.

- nadir of neutrophil level (neutrophils [1]): 9 days
Molecule: CCc1c2c(nc3ccc(OC(=O)N4CCC(N5CCCCC5)CC4)cc13)-c1cc3c(c(=O)n1C2)COC(=O)[C@]3(O)CC [Irinotecan]

- patients suffering grade 3/4 neutropenia (neutrophils [1]; 14 patients, weekly docetaxel 40-45 mg/m^2, three consecutive weeks in cycles of four weeks (38)): Half
- nadir recorded on days (neutrophils [1]; [4]): 6 to 10 days
- recovery to baseline recorded on days (neutrophils [1]; [4]): 16 to 22 days
- neutropenia (neutrophils [1]; docetaxel dose up to 145 mg/m^2, as reported in (36)): acceptable neutropenia
- patients suffering grade 3/4 neutropenia (neutrophils [1]; patients receiving 30-35 mg/m2/week (38)): none
- docetaxel clearance, CYP3A-affected clinically observed range: 5.4-29.1 Uhr/m^2
- docetaxel clearance, observed range (CYP3A inter-individual variability (27)): 5.4-29.1 L/hr/m^2
- AUC ([2]; 35 mg/m^2): 1320 ± 420 ng·h/mL
- Clearance ([2]; 35 mg/m^2): 29.10 ± 10.20 L/h*m^2
- Cmax ([2]; 35 mg/m^2): 1850 ± 730 ng/mL
- Terminal half life ([2]; 35 mg/m^2): 15.60 ± 12.00 h
- AUC ([2]; 100 mg/m^2): 5620 ± 2120 ng·h/mL
- Clearance ([2]; 100 mg/m^2): 19.60 ± 5.60 L/h*m^2
- Cmax ([2]; 100 mg/m^2): 4150 ± 1350 ng/mL
- Terminal half life ([2]; 100 mg/m^2): 17.20 ± 6.20 h
Molecule: CC(=O)O[C@@]12CO[C@@H]1C[C@H](O)[C@@]1(C)C(=O)[C@H](O)C3=C(C)[C@@H](OC(=O)[C@H](O)[C@@H](NC(=O)OC(C)(C)C)c4ccccc4)C[C@@](O)([C@@H](OC(=O)c4ccccc4)[C@H]21)C3(C)C [Docetaxel]
